Experimental data reported in ChEMBL document CHEMBL1133211, “Synthesis of feruloyl-myo-inositols and their inhibitory effects on superoxide generation” (2000).

What was measured:
HL-60 [1] = experiment: Cell viability in TPA-induced superoxide (O2-) generation in human promyelocytic leukemia HL-60 cells, at 100 uM concentration; type: functional
HL-60 [2] = experiment: Inhibitory activity against TPA-induced superoxide (O2-) generation in human promyelocytic leukemia HL-60 cells, at 100 uM concentration; type: functional

SMILES	Cell viability (HL-60 [1]) [%]	inhibition at 100 µM (HL-60 [2]) [%]
COc1cc(/C=C/C(=O)O[C@H]2[C@@H](O)[C@@H](O)[C@H](OC(=O)/C=C/c3ccc(OC(C)=O)c(OC)c3)[C@@H](O)[C@@H]2O)ccc1OC(C)=O	~72	~20
COc1cc(/C=C/C(=O)O[C@H]2[C@@H](O)[C@@H](O)[C@H](OC(=O)/C=C/c3ccc(O)c(OC)c3)[C@@H](O)[C@@H]2O)ccc1O	~80	~5
COc1cc(/C=C/C(=O)O[C@@H]2[C@H](O)[C@@H](O)[C@H](O)[C@@H](O)[C@@H]2OC(=O)/C=C/c2ccc(O)c(OC)c2)ccc1O	~80	~20
COc1cc(/C=C/C(=O)O[C@@H]2[C@H]3OC4(CCCCC4)O[C@@H]3[C@@H](OC(=O)/C=C/c3ccc(OC(C)=O)c(OC)c3)[C@@H]3OC4(CCCCC4)O[C@H]23)ccc1OC(C)=O	~60	~25
COC(=O)/C=C/c1ccc(O)c(OC)c1	~80	~2
COc1cc(/C=C/C(=O)O[C@@H]2[C@H](O)[C@H](OC(C)=O)[C@@H](OC(C)=O)[C@H](OC(C)=O)[C@H]2OC(C)=O)ccc1OC(C)=O	~45	~5
COc1cc(/C=C/C(=O)O[C@@H]2[C@H]3OC4(CCCCC4)O[C@@H]3[C@@H](OC(=O)/C=C/c3ccc(O)c(OC)c3)[C@@H]3OC4(CCCCC4)O[C@H]23)ccc1O	~60	~30
COc1cc(/C=C/C(=O)O)ccc1OC(C)=O	~82	~2
COc1cc(/C=C/C(=O)O[C@@H]2[C@H](OC(C)=O)[C@@H](OC(C)=O)[C@H](OC(C)=O)[C@@H](OC(C)=O)[C@@H]2OC(=O)/C=C/c2ccc(OC(C)=O)c(OC)c2)ccc1OC(C)=O	~60	~100
CCOC(=O)/C=C/c1ccc(O)c(OC)c1 [ETHYL FERULATE]	~80	~9
COc1cc(/C=C/C(=O)O)ccc1O [FERULATE]	~80	~12
